Experimental data: article PMC3225327 (Journal of Biomedical Science, 2011)
Entries after “also recorded” stand apart in the source; their conditions may differ.

Assays:
[1] = test system: duration of xylazine/ketamine-induced anesthesia; test: Xylazine/ketamine-induced anesthesia; details: 10~100 μmol/kg s.c., 1 h before anesthesia
Experimental: After loss of the righting reflex (i.e., when a mouse remained on its back and no longer spontaneously righted itself to a prone position), the duration of anesthesia was measured until its return as the endpoint.

[2] = test system: inflammatory cells in bronchoalveolar lavage fluid; test: Inflammatory cell counts in BALF of sensitized and challenged mice; type: in vivo, BABL/c mice; details: 3~30 μmol/kg p.o.
Experimental: According to the schedule (Figure 1), ten female BABL/c mice in each group were sensitized by an intraperitoneal (i.p.) injection of 20 μg of OVA emulsified in 2.25 mg of an aluminum hydroxide gel, prepared from aluminum sulfate hexadecahydrate, in a total volume of 100 μl on days 0 and 14. On day 21, these mice were injected with (i.p.) 100 μl of a mixture of 1% OVA and Freund's complete adjuvant (1:1). Mice were challenged via the airway using 1% OVA in saline for 30 min on days 28, 29, and 30 by ultrasonic nebulization. After the last of OVA challenges, AHR was assessed on day 32 (48 h after 1% OVA provocation) in each group. […] For comparison, sham-treated mice were challenged with saline instead of 1% OVA (non-challenged). […] AHR was assessed using two methods: (1) in anesthetized ventilated mice, AHR was assessed as previously described by measuring changes in the airway resistance (RL, cmH2O/ml/sec) and lung dynamic compliance (Cdyn, ml/cmH2O) after challenge with aerosolized methacholine (MCh, 0.78~25 mg/ml) using the FlexiVent system (SCIREQ, Montreal, Quebec, Canada). Anesthetized (urethane 600 mg/kg and chloralose 120 mg/kg, i.p.), tracheostomized (stainless-steel cannula, 18 G) mice were mechanically ventilated (at 150 breaths/min, with a tidal volume of 10 ml/kg, positive end-expiratory pressure of 3 cmH2O). (2) in unrestrained animals by barometric plethysmography using a whole-body plethysmograph (WBP) and analyzed using software of Life Science Suite P3 Analysis Modules (Gould, LDS Test and Measurement LLC, Valley View, OH, USA). Mice were placed into the main chamber of the WBP, and the baseline enhanced pause (Penh) value was determined. […] Twenty-four hours after Penh determination, these mice were anesthetized with pentobarbital (50 mg/kg, i.p.), and the lungs were lavaged via a tracheal tube with PBS (1 × 1.0 ml, 37°C). After lavage, blood was collected from the jugular vein and allowed to sit so that it would coagulate. The collected bronchoalveolar lavage fluid (BALF) and coagulated blood were respectively centrifuged at 630 g for 7 min and at 3700 g for 10 min at 4°C. After centrifugation, the BALF and serum supernatants were stored at -20°C until determination of cytokines, including interleukin (IL)-2, IL-4, IL-5, tumor necrosis factor (TNF)-α, and interferon (IFN)-γ by flow cytometric methods using mouse T helper (Th)1/Th2 cytokine CBA kits, and of total immunoglobulin (Ig)E or IgG2a using ELISA kits (Pharmingen, San Diego, CA, USA) according to the respective recommendations of the manufacturers. OVA-specific IgE was measured as described previously. Wells were coated with 100 μl of OVA (20 μg/ml) instead of the capture antibody. Levels are expressed in arbitrary units, where 1 arbitrary unit equals the optical density of the sample divided by the optical density of unchallenged mouse serum or BALF (standard). The BALF pellet was resuspended in ACK lysing buffer (1.658 g NH4Cl, 0.2 g KHCO3 and 1.44 mg EDTA in 200 ml of water) to lyse the residual erythrocytes in each sample. The number of inflammatory cells was counted using a hemocytometer (Hausser Scientific, Horsham, PA, USA). Cytospun slides were stained and differentiated in a blinded fashion by counting at least 100 cells under light microscopy. All undetectable data (< 1 pg/ml) of cytokines were taken as 0 pg/ml.

PDE2 = test: Inhibition of PDE2 activity, two-step procedure; type: biochemical; details: homogenate of guinea pig lungs or hearts
Experimental: (§1) Activities of PDE1~5 in the homogenate of guinea pig lungs or hearts were measured by a two-step procedure according to the previous method, using cAMP with [^3H]-cAMP or cGMP with [^3H]-cGMP as substrates. […] The reagents and homogenate were mixed on ice, and the reaction was initiated by transferring the mixture to a water bath at 37°C. Following a 30-min incubation, the reaction was stopped by transferring the reaction vessel to a bath of boiling water for 3 min. After cooling on ice, 20 μl of a 1 mg/ml solution of Crotalus atrox snake venom was added to the reaction mixture, and the mixture was incubated at 37°C for 10 min. Unreacted [^3H]-cAMP or [^3H]-cGMP was removed by the addition of 500 μl of a 1-in-1 Tris-HCl (40 mM) buffer suspension of Dowex resin (1 × 8-200) with incubation on ice for 30 min. Each tube was then centrifuged at 3700 g for 2 min, and 150 μl of the supernatant was removed for liquid scintillation counting. […] The total protein in each fraction used was assayed according to a previous method. PDE activities are reported as nmol/mg/min.

PDE3 = test: Inhibition of PDE3 activity, two-step procedure; type: biochemical; details: homogenate of guinea pig lungs or hearts
Experimental: as §1

COc1cc(O)c2c(c1)O[C@H](c1ccc(OC)c(OC)c1)CC2=O [HDME, hesperetin-7,3'-O-dimethylether] was tested, and the “effect on duration of xylazine/ketamine-induced anesthesia” value [1] was “did not significantly influnce”, the “effect on increase in number of eosinophils in BALF” value [2] was “significantly suppressed; also recorded: abolished” and the “effect on increase in number of lymphocytes in BALF” value [2] was “significantly suppressed”. For the same compound, the “effect on increase in number of macrophages in BALF” value [2] was “significantly suppressed”, the “effect on increase in number of neutrophils in BALF” value [2] was “significantly suppressed” and the “effect on increase in number of total inflammatory cells in BALF” value [2] was “significantly suppressed”. The IC50 (PDE2) was over 100 µM and the IC50 (PDE3) was 24.6 ± 3.5 µM.
